# Reference: patent US11590117B2, “Treatment of a hematologic malignancy with 2-(4-chlorophenyl)-n-((2-(2,6-dioxopiperidin-3-yl)-1-oxoisoindolin-5-yl)methyl)-2,2-difluoroacetamide” (priority 2016, dated 2023)
# Several values for one entry are separate records, joined by “and”; a condition that tells them apart may be missing. Equal entries are not always repeated.
# What was measured:
# [1] = tested on: CFU-GM (granulocyte/monocyte progenitors); experiment: Colony forming assay, bone marrow CD34+ cells in MethoCult; type: cell-based, human
# Protocol: (§1) Experimental design: human bone marrow (BM) CD34+ cells were used to evaluate the potential for BM toxicity induced by Compound 1. In order to test the effects of Compound 1 on the functionality of hematopoietic progenitors, colony forming assays were done by seeding BM CD34+ cells on MethoCult medium. Cells were seeded directly in MethoCult with Compound 1 or cultured in liquid medium with Compound 1 for 2, 4, or 8 hours and then seeded in compound-free MethoCult to evaluate the effect of different exposure times. Early apoptosis induced by Compound 1 on HSC was analyzed by flow cytometry.
# (§2) Results. Colony forming units (CFU) of common granulocyte/erythrocyte/monocyte/megakaryocyte (CFU-GEMM), CFU of granulocyte/monocyte (CFU-GM), burst forming unit of erythrocytes (BFU-E), and CFU of erythrocytes (CFU-E) in cultures exposed to Compound 1 or DMSO were scored on STEMvision.
# (§3) Bone marrow CD34+ cells from normal donors were incubated with Compound 1 in MethoCult medium. Colony numbers for CFU-GM and BFU-E progenitors were counted using STEMVision automatic colony counting instrument and software and normalized to the colony number of the DMSO control. Results plotted as percentage of DMSO control vs concentration of Compound 1 were used to determine IC50 values. Data are shown as mean standard error of the mean of n=3 technical replicates. Donors were HD10, HD14, HD18, and HD19.
# FIGS. 33A and 33B provide, colony numbers after preincubation of bone marrow CD34+ cells with Compound 1 for 4 or 8 hours, respectively, in Iscove's medium, followed by incubation in MethoCult medium without Compound 1 for 14 days. FIG. 33C provides colony numbers after incubation of bone marrow CD34+ cells in MethoCult medium in continuous presence of Compound 1 for 14 days.
# [2] = tested on: CFU-E; experiment: as above; type: cell-based, human
# Protocol: as §1, §2, §3
# [3] = tested on: CFU-GEMM; experiment: as above; type: cell-based, human
# Protocol: as §1, §2, §3
# [4] = tested on: AML cell lines; experiment: CellTiter-Glo (CTG) cell proliferation assay, 72 hours, panel of 11 AML cell lines; type: cell-based; conditions: Homo sapiens, 10 out of the 11 AML cell lines tested (sensitive lines), read-out: antiproliferative IC50 values (range)
# Protocol: Preparation of Solutions of Test Article: Compounds were plated into black 384-well plates (Corning Inc.) to a final DMSO volume of 0.1% assuming a maximal volume of 50 μL. A 10-point dose response starting at 10 μM with a 1:3 dilution was printed in duplicate by acoustic dispense using the EDC ATS-100 platform.
# Cell Proliferation Assays: The effect of Compound 1 on the proliferation/viability of the hematological cell lines (Table 1 Table, Table 2 and Table 3), THLE-2, or PBMCs was assessed after 72 hours incubation using CTG (Promega), according to manufacturer's instructions. Hematological cell lines were dispensed into compound plates by a Multidrop™ Combi Reagent Dispenser (Thermo Scientific, Waltham, Mass.) at a concentration of 0.1 to 0.3×10^6 cells per mL in a 50 μL total volume. […] At 72 hours, 25 μL per well of CTG was dispensed by a Multidrop™ Combi Reagent Dispenser and adenosine triphosphate (ATP) release by viable cells was measured as relative luminescence units after 30 minutes using the Envision platform.
# Results. […] Compound 1 inhibited cell proliferation in 10 out of 11 AML cell lines assessed, as determined by the quantitative assessment of ATP levels present in the media after 72 hours. […]
# Proliferation was assessed using the CellTitre-Glo® assay. […] The IC50 for inhibition of cell growth by Compound 1 was determined for each cell line using ActivityBase software.
# [5] = Donor HD10, 7.4 nM Compound 1, replicate counts
# [6] = Donor HD10, 22.2 nM Compound 1, replicate counts
# [7] = Donor HD10, 67 nM Compound 1, replicate counts
# [8] = Donor HD10, 200 nM Compound 1, replicate counts
# [9] = Donor HD10, 600 nM Compound 1, replicate counts
# [10] = Donor HD14, 7.4 nM Compound 1, replicate counts
# [11] = Donor HD14, 22.2 nM Compound 1, replicate counts
# [12] = Donor HD14, 67 nM Compound 1, replicate counts
# [13] = Donor HD14, 200 nM Compound 1, replicate counts
# [14] = Donor HD14, 600 nM Compound 1, replicate counts
# [15] = Donor HD18, 7.4 nM Compound 1, replicate counts
# [16] = Donor HD18, 22.2 nM Compound 1, replicate counts
# [17] = Donor HD18, 67 nM Compound 1, replicate counts
# [18] = Donor HD18, 200 nM Compound 1, replicate counts
# [19] = Donor HD18, 600 nM Compound 1, replicate counts
# [20] = Donor HD19, 7.4 nM Compound 1, replicate counts
# [21] = Donor HD19, 22.2 nM Compound 1, replicate counts
# [22] = Donor HD19, 67 nM Compound 1, replicate counts
# [23] = Donor HD19, 200 nM Compound 1, replicate counts
# [24] = Donor HD19, 600 nM Compound 1, replicate counts
smiles,measurement,setting,value
"O=C1CCC(N2Cc3cc(CNC(=O)C(F)(F)c4ccc(Cl)cc4)ccc3C2=O)C(=O)N1 (centres unmarked) [Compound 1, 2-(4-chlorophenyl)-N-((2-(2,6-dioxopiperidin-3-yl)-1-oxoisoindolin-5-yl)methyl)-2,2-difluoroacetamide]",Colony Number CFU-GM,[1]; [5],82 and 74
same,Colony Number CFU-GM,[1]; [6],71 and 80
same,Colony Number CFU-GM,[1]; [7],48 and 61
same,Colony Number CFU-GM,[1]; [8],2 and 0
same,Colony Number CFU-GM,[1]; [9],0
same,Colony Number CFU-GM,[1]; [10],15 and 12
same,Colony Number CFU-GM,[1]; [11],16 and 15
same,Colony Number CFU-GM,[1]; [12],6 and 4
same,Colony Number CFU-GM,[1]; [13],0
same,Colony Number CFU-GM,[1]; [14],0
same,Colony Number CFU-GM,[1]; [15],59 and 73
same,Colony Number CFU-GM,[1]; [16],55 and 62
same,Colony Number CFU-GM,[1]; [17],2 and 6
same,Colony Number CFU-GM,[1]; [18],0
same,Colony Number CFU-GM,[1]; [19],0
same,Colony Number CFU-GM,[1]; [20],44 and 70
same,Colony Number CFU-GM,[1]; [21],34 and 35
same,Colony Number CFU-GM,[1]; [22],4 and 5
same,Colony Number CFU-GM,[1]; [23],0
same,Colony Number CFU-GM,[1]; [24],0
same,IC50,"[1]; Homo sapiens, CFU-GM, CD34+ cells from four healthy donors, Compound 1 in MethoCult, read-out: IC50, inhibition of granulo-monocytic progenitors (CFU-GM)",82 to 135 nM
same,Colony Number CFU-E,[2]; [5],2
same,Colony Number CFU-E,[2]; [6],0
same,Colony Number CFU-E,[2]; [7],0
same,Colony Number CFU-E,[2]; [8],1 and 3
same,Colony Number CFU-E,[2]; [9],0
same,Colony Number CFU-E,[2]; [10],6 and 0
same,Colony Number CFU-E,[2]; [11],7 and 0
same,Colony Number CFU-E,[2]; [12],4
same,Colony Number CFU-E,[2]; [13],1 and 2
same,Colony Number CFU-E,[2]; [14],2 and 0
same,Colony Number CFU-E,[2]; [15],0 and 2
same,Colony Number CFU-E,[2]; [16],7 and 1
same,Colony Number CFU-E,[2]; [17],3 and 0
same,Colony Number CFU-E,[2]; [18],3 and 2
same,Colony Number CFU-E,[2]; [19],1
same,Colony Number CFU-E,[2]; [20],9 and 4
same,Colony Number CFU-E,[2]; [21],4 and 5
same,Colony Number CFU-E,[2]; [22],6 and 3
same,Colony Number CFU-E,[2]; [23],3 and 1
same,Colony Number CFU-E,[2]; [24],1
same,Colony Number CFU-GEMM,[3]; [5],4 and 2
same,Colony Number CFU-GEMM,[3]; [6],2 and 0
same,Colony Number CFU-GEMM,[3]; [7],5 and 1
same,Colony Number CFU-GEMM,[3]; [8],0
same,Colony Number CFU-GEMM,[3]; [9],0
same,Colony Number CFU-GEMM,[3]; [10],0
same,Colony Number CFU-GEMM,[3]; [11],0
same,Colony Number CFU-GEMM,[3]; [12],0
same,Colony Number CFU-GEMM,[3]; [13],0
same,Colony Number CFU-GEMM,[3]; [14],0
same,Colony Number CFU-GEMM,[3]; [15],2 and 4
same,Colony Number CFU-GEMM,[3]; [16],1
same,Colony Number CFU-GEMM,[3]; [17],0
same,Colony Number CFU-GEMM,[3]; [18],0
same,Colony Number CFU-GEMM,[3]; [19],0
same,Colony Number CFU-GEMM,[3]; [20],4
same,Colony Number CFU-GEMM,[3]; [21],0 and 1
same,Colony Number CFU-GEMM,[3]; [22],0 and 1
same,Colony Number CFU-GEMM,[3]; [23],0
same,Colony Number CFU-GEMM,[3]; [24],0
same,IC50,[4],3 to 75 nM
